Reference: US11584744B2 (UNIVERSITY OF WASHINGTON, priority 2017, dated 2023)
≈ marks a conversion by molar mass, not a printed value. Like-named read-outs stand apart in the source and are kept apart here.

What was measured:
[1] = target: recombinant S. aureus MetRS enzyme (Staphylococcus aureus, UniProt A0A0H2XID2); experiment: Inhibition of SaMetRS, ATP depletion assay; assay type: biochemical
Procedure, shortened: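 N-terminal 6-His S. aureus MetRS (25 nM) was pre-incubated 15 min at room temperature with compound, 400 μg/mL E. coli tRNA and pyrophosphatase in HEPES-KOH pH 7.9, 2% DMSO. Reaction started with 150 nM ATP plus 20 μM L-methionine, ran 120 min; remaining ATP read by Kinase-Glo luminescence, IC50 by sigmoidal nonlinear regression.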

S. aureus (ATCC 29213) [2] = experiment: MBC determinations (with MIC); assay type: cell-based; conditions: Staphylococcus aureus, ATCC29213, S. aureus (ATCC 29213); for MIC: MBC experiment (Table 5), read-out: MIC; for MBC: concentration killing 99.9% of inoculum, read-out: MBC
Method: Maximum DMSO concentrations were 0.5%. […] Each experiment's inoculum was serially diluted and plated on TSA to count competent cells. Cultures were incubated at 37° C. for at least 20 h and plated on TSA for CFU determination.
MIC/MBC: Measurements of minimum bactericidal concentrations (MBCs) were done with the S. aureus strain ATCC 29213 (Table 5).

[3] = Protein binding assays, equilibrium dialysis; assay type: in vitro ADME, mouse; conditions: 1 μM, equilibrium dialysis 22 hours
Method: Protein binding assays: Compound binding to mouse plasma proteins was determined using 96-well equilibrium dialyzer plates (SDIS 9610EN, Nest Group, Inc.). Mouse plasma ([…]-SW-F, BioreclamationIVT, Westbury, N.Y.) containing compound (final concentration 1 μM) was added to a donor chamber as a 150 μL volume. The buffer solution (0.2 mM phosphate buffer, 150 μL) was added to the reciprocal acceptor chamber. Each compound was tested in triplicate. To prepare calibration solution for compound quantifications, blank wells were prepared containing only mouse plasma in a donor well and buffer solution in its acceptor well. The equilibrium dialysis was carried out by rocking the plate for 22 hours in 37° C. Once equilibrium was reached, the plasma and buffer solution from both wells were carefully removed for further analysis with liquid chromatography-tandem mass spectrometry. Plasma solution and internal standard were mixed in the presence of 80% acetonitrile. After centrifuging the solution, the supernatant was transferred to an insert. Similarly, the buffer solution from the acceptor side was prepared containing 40% acetonitrile. Calibration standards for donor and acceptor sides were prepared with compound concentrations of 50 nM, 100 nM, 250 nM, 500 nM, and 1 μM. The compound concentrations from each well were calculated from the calibration curves using Microsoft Excel. The percentage of the test compound bound was determined as follows: % Free=(Concentration buffer chamber/Concentration plasma chamber)×100% % Bound=100%−% Free

S. aureus (ATCC 29213) [4] = experiment: Macromolecular synthesis assays (radiolabeled precursor incorporation); assay type: cell-based, Staphylococcus aureus; conditions: 30 minute incubations
Method: Macromolecular synthesis assays: Methods for measuring uptake of radiolabeled precursors by S. aureus (ATCC strain 29213) were adapted from previous publications. For these assays, bacteria were grown in defined media (DM): RPMI-1640 pH 7.3±0.1 without phenol red or L-glutamine (Lonza, Basel, Switzerland) supplemented with 4 mM L-glutamine (Lonza, Basel, Switzerland), 10 mM HEPES (Lonza, Basel, Switzerland), and 1% (w/v) D-glucose (Sigma Aldrich, St. Louis, Mo.). Fresh overnight cultures grown in DM at 37° C. were diluted 1:50 in pre-warmed DM and grown at 37° C. with shaking (150 rpm) until reaching an OD600 of 0.420 correlating to ˜1*10^9 CFUs/mL in mid-log phase. Each compound was assayed in quadruplicate with an 11-point three-fold serial dilution per radioisotope. A pre-warmed 96-well V-bottom plate (Corning 3894; Corning, Corning, Mass.) containing 25 μL of 4× final concentration of test compound was inoculated with 65 μL of mid-log phase bacteria (OD600 of 0.420). Both positive and negative control wells received 25 μL untreated DM and 65 μL of inoculum at the same time. After one minute, 10 μL of radiolabeled precursor (10× final concentration in DM) was added to samples and positive control wells. Final isotope concentrations for assay of [3H]-lysine (protein), [3H]-thymidine (DNA), and [3H]-uridine (RNA) were 10 μCi/mL, 2 μCi/mL, and 2 μCi/mL respectively. […] After termination, 10 μL of 10× radiolabeled precursor was added to negative control wells. The negative control consisted of adding radiolabeled precursors after termination of the bacterial incubation in order to represent background measurement of the isotope. Plates were sealed with plate tape (Thermo Fischer Scientific, Waltham, Mass.) and shaken at 250 rpm for one hour at room temperature. Aliquots of 125 μL were transferred from the 96-well V-bottom plates to 96-well filter plates (Merck Millipore, Billerica, Mass.). To bind macromolecules, the samples were passed through the filter membrane (0.45 μM hydrophilic Durapore PVDF membrane) with a vacuum manifold, then the filter was washed with 4×200 μL 10% TCA and 1×150 μL of 95% ethanol, and dried overnight in vacuum at room temperature. 25 μL Ultima Gold scintillation fluid (Perkin Elmer, Waltham, Mass.) was added to each well and DPM was quantified using a MicroBeta^2-2450 (Perkin Elmer, Waltham, Mass.) scintillation counter. The percent incorporation was determined by subtracting each well by the average negative background and dividing by the average positive incorporation×100. Error bars represent SEM between replicates. The assay was run twice with similar results.

MetRS (C. parvum) = MetRS (C. parvum) (Cryptosporidium parvum, UniProt Q5CVN0); experiment: MetRS (C. parvum) enzyme inhibition; assay type: biochemical; conditions: read-out: (C) MetRS (C. parvum) IC50
Sequence of MetRS (C. parvum) (Q5CVN0 entry or part of it): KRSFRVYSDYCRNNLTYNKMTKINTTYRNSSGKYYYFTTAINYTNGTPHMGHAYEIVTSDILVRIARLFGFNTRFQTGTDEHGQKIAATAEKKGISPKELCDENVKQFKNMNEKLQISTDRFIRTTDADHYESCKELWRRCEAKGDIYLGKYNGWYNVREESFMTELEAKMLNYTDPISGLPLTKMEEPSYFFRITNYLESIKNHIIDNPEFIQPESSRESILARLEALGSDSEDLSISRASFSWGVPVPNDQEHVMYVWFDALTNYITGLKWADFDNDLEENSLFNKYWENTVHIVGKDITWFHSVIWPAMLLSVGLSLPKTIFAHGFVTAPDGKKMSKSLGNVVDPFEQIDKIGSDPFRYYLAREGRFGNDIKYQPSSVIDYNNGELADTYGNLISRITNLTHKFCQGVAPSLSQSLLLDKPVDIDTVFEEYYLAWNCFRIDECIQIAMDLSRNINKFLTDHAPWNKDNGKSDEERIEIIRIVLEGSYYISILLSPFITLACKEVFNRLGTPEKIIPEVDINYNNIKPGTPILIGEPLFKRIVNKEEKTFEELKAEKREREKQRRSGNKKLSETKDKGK

[5] = recombinant enzyme, lower limit of detection 0.025 μM, read-out: MetRS S. aureus (enzyme) IC50
[6] = read-out: (B) MetRS (S. aureus) IC50

Sequence of recombinant S. aureus MetRS enzyme (A0A0H2XID2 2-657): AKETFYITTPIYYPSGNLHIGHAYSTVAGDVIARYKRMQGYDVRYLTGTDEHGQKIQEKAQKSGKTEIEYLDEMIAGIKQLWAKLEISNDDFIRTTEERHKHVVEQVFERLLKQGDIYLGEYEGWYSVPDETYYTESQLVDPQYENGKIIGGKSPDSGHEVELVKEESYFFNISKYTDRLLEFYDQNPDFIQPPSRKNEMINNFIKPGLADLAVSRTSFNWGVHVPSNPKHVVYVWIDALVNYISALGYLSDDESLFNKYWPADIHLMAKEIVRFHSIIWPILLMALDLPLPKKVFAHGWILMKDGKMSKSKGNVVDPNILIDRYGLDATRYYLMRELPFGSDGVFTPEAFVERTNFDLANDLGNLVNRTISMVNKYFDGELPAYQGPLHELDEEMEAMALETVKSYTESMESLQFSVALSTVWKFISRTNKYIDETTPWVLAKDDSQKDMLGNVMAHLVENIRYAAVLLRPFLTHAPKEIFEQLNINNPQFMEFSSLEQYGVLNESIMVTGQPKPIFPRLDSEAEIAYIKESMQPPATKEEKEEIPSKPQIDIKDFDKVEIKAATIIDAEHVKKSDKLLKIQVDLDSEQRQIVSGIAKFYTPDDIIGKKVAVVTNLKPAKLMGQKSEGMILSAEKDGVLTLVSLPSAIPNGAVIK

| Structure (SMILES) | IC50 [1, 5] [nM] | MIC (S. aureus (ATCC 29213) [2]) [µg/mL] | MBC (S. aureus (ATCC 29213) [2]) [µg/mL] | % binding to mouse plasma [3] [%] | Incorporation of 3H-Lysine (protein synthesis) (S. aureus (ATCC 29213) [4]) | IC50 [1, 6] [nM] | IC50 (MetRS (C. parvum)) [nM] |
| --- | --- | --- | --- | --- | --- | --- | --- |
| Fc1ccc2nc(NCCCN[C@@H]3CCNc4c(Cl)cc(Cl)cc43)[nH]c2n1 [Compound 1717, (4R)-6,8-dichloro—N-[3-({5-fluoro-3H-imidazo[4,5-b]pyridin-2-yl}amino)propyl]-1,2,3,4-tetrahydroquinolin-4-amine, reference compound] | < 25 | 0.156 (≈ 0.381 µM) | 5 (≈ 12.2 µM) | 97.6 | profoundly inhibited | – | – |
| CCn1c(Cc2ccc(OC)cc2Cl)cn(Cc2nc3nc(Cl)ccc3[nH]2)c1=O [Compound 2093, 1-({5-chloro-1H-imidazo[4,5-b]pyridin-2-yl}methyl)-4-[(2-chloro-4-methoxyphenyl)methyl]-3-ethyl-2,3-dihydro-1H-imidazol-2-one] | < 25 | 0.078 (≈ 0.18 µM) | 1.25 (≈ 2.89 µM) | 99.9 | profoundly inhibited | < 25 | < 40 |
| CCn1c(Cc2ccc(Cl)cc2Cl)cn(Cc2nc3nc(F)ccc3[nH]2)c1=O [Compound 2062, 4-[(2,4-dichlorophenyl)methyl]-3-ethyl-1-({5-fluoro-1H-imidazo[4,5-b]pyridin-2-yl}methyl)-2,3-dihydro-1H-imidazol-2-one] | < 25 | – | – | 99.4 | – | < 25 | < 40 |
| COc1cc(Cl)c(-c2cccc3nc(Cc4nc5nc(Cl)ccc5[nH]4)cn23)cc1OC [Compound 2144, 2-({5-chloro-1H-imidazo[4,5-b]pyridin-2-yl}methyl)-5-(2-chloro-4,5-dimethoxyphenyl)imidazo[1,2-a]pyridine] | < 25 | 0.01 (≈ 0.022 µM) | 0.313 (≈ 0.689 µM) | 98.4 | profoundly inhibited | < 25 | 40.9 |
| CCn1c(Cc2ccc(OC)cc2Cl)cn(Cc2nc3nc(F)ccc3[nH]2)c1=O [Compound 2114, 4-[(2-chloro-4-methoxyphenyl)methyl]-3-ethyl-1-({5-fluoro-1H-imidazo[4,5-b]pyridin-2-yl}methyl)-2,3-dihydro-1H-imidazol-2-one] | < 25 | – | – | – | – | < 25 | < 40 |
| Fc1ccc2nc(NCCCNCc3cc(Cl)cc(Cl)c3)[nH]c2n1 [Compound 1614, [(3,5-dichlorophenyl)methyl][3-({5-fluoro-3H-imidazo[4,5-b]pyridin-2-yl}amino)propyl]amine] | < 25 | – | – | 96.5 | – | – | – |
| CC(=O)NC[C@H]1CN(c2ccc(N3CCOCC3)c(F)c2)C(=O)O1 [LNZ, linezolid] | > 10000 | 2.5 (≈ 7.41 µM) | 160 (≈ 474 µM) | 39.5 | – | – | – |
